Test results published in patent US20040110846A1, “Perylenequinones for use with immunotherapy agents” (priority 2004, published 2004).

Assays:
[1] = test system: EMT6 murine mastocytoma; test: Sonosensitizing potential: LD50 in EMT6 cells in vitro for a fixed dose of ultrasound; format: cell-based
Text: (§1) As used herein, “photopotentiation factor” refers to the property of the compound(s) to exert light- or sound-mediated toxicity in excess of its (their) inherent unactivated toxicity. In a preferred embodiment of the invention, the activation factor may be calculated as the ratio of the LD50 of cells treated without activation to the LD50 of the cells treated with an activated compound (drug LD50 divided by activated drug LD50). Where the term “LD50” has been used above, the term “IC50” may be substituted, to address the bioassays that concern metabolic activity rather than the endpoint of lethality, loss of reproductive capability, or clonogenic death. The relative photoactivation efficiency of a compound may also be determined using a clonogenic assay, an assay that is well known to those skilled in the art.
(§2) for a fixed dose of light or ultrasound

[2] = test system: EMT6 murine; test: Photosensitizing potential: LD50 in EMT6 cells in vitro for a fixed dose of light; format: cell-based
Text: as §1, §2

[3] = Absorption (extinction coefficient) in the red spectral region compared with HB; format: physicochemical
Text: A hypocrellin derivative of the present invention also includes 2-butylamino-2-demethoxy-hypocrellin B (2-BA-2-DMHB). […] Compared with its parent compound HB, its absorption bands extend toward longer wavelengths. The extinction coefficient at 583 nm was 2.5-fold as much as HB at 548 nm, and at 621 nm was over 3.8-fold as much as HB at 580 nm.

| Substance | Sonosensitizing Potential (Molar Concentration which exerts LD50) [1] | Photosensitizing Potential (Molar Concentration which exerts LD50) [2] [µM] | extinction coefficient at 583 nm relative to HB at 548 nm ([3]; 583 nm vs HB at 548 nm) [fold] | extinction coefficient at 621 nm relative to HB at 580 nm ([3]; 621 nm vs HB at 580 nm) |
| --- | --- | --- | --- | --- |
| 2-butylamino-2-demethoxy-Hypocrellin B [DMHBb] | 0.1 mM | 0.1 | 2.5 | over 3.8 fold |
| 2-morpholino-ethylaminated HB [HBAM-R1] | None | 4.0 |  |  |
| Ethylenediamne-Hypocrellin B [HBED-R2] | None | 4.0 |  |  |
| Demethylated-HB [DMHBa] | 1.0 mM | 3.0 |  |  |
| 2-(N,N-dimethyl-amino) propylamine-Hypocrellin B [HBDD-R1] | 1.0 mM |  |  |  |
| Methylamine-Hypocrellin B [HBMA-IV] | None | 1.0 |  |  |
| Hypocrellin A [HA, reference compound] | None | 4.0 |  |  |
